What follows are molecules tested against T1, human BRD4 bromodomain II (Homo sapiens, UniProt O60885) (assay: Bromodomain binding assay (AlphaScreen), BRD4 BDII). Details: AlphaScreen assay, Table C2; read-out: BRD4 BDII IC50.
T1 construct: human BRD4 bromodomain II [based on Genbank NM_058243, residues 349-460]; host or cells: E. coli
Experimental: Bromodomain Binding Assay
The bromodomain binding assay utilizes AlphaScreen technology. Compounds compete with a biotinylated peptide ligand (from histone H4: aa 1-21, K5/K8/K12/K16Ac-biotin) for binding to a hexahistidine (His6)-tagged bromodomain. Peptide binding is detected by fluorescence signal after singlet oxygen energy transfer from peptide-bound AlphaScreen streptavidin-coated donor beads to His6-tagged bromodomain-bound nickel-chelate acceptor beads (PerkinElmer). Briefly, 8 μL 2.5× bromodomain (E. coli expressed, N-terminal His6-tagged human BRD4 bromodomain II [based on Genbank NM_058243, residues 349-460] or N-terminal His6-tagged human BRD4 bromodomain I [residues 44-170]) in reaction buffer (50 mM HEPES [pH 7.5], 100 mM NaCl, 0.05% CHAPS, 0.1% BSA, 1% DMSO) is added to wells of an assay plate (384-well low flange white, flat bottom, polystyrene microplate, Corning #3572; buffer only is added to some wells as a negative control). A compound concentration series (10 concentrations, 3-fold serial dilutions previously prepared in 100% DMSO, or 100% DMSO only negative control) is delivered to the assay plate with an Echo 550 acoustic liquid handler (Labcyte), followed by plate centrifugation and incubation for 30 minutes at room temperature. Then 4 μL 5× biotinylated peptide ligand is added, followed by plate centrifugation and gentle shaking for 30 minutes at room temperature to mix. After this incubation, 4 μL 5× donor beads are added, and the plate is centrifuged, followed by brief gentle shaking to mix. Finally, 4 μL 5× acceptor beads are added, and the plate is centrifuged, followed by gentle shaking for 60 minutes at room temperature in the dark. AlphaScreen signal (excitation/emission: 680 nm/520-620 nm) is detected with an EnSpire multimode plate reader (PerkinElmer). Percentage peptide binding is plotted as a function of concentration, and curve fitting is used to determine competitive compound binding ICsos.

For `CC(=O)Nc1ccc(-c2cccc(-c3cc(N4CCN(C(C)=O)CC4)no3)c2O)cc1` [Example 57, N-(3′-(3-(4-Acetylpiperazin-1-yl)isoxazol-5-yl)-2′-hydroxy-[1,1′-biphenyl]-4-yl)acetamide], which IC50 is on record?
Its IC50 is greater than 100 nM.

For `CC(=O)Nc1ccc(-c2cccc(-c3cc(N4CCN(S(=O)(=O)c5ccccc5)CC4)no3)c2O)cc1` [Example 58, N-(2′-Hydroxy-3′-(3-(4-(phenylsulfonyl)piperazin-1-yl)isoxazol-5-yl)-[1,1′-biphenyl]-4-yl)acetamide], which IC50 is on record?
Its IC50 is greater than 100 nM.

With `CC(=O)Nc1ccc(-c2cccc(-c3ccc(F)cc3)c2O)cc1F` [Example 59, N-(3,4″-Difluoro-2′-hydroxy-[1,1′:3′,1″-terphenyl]-4-yl)acetamide] as the molecule, how does the IC50 read?
Its IC50 is greater than 100 nM.

Which IC50 does the source give for `CC(=O)Nc1ccc(-c2cccc(-c3ccc(C)cc3)c2O)cc1F` [Example 60, N-(3-Fluoro-2′-hydroxy-4″-methyl-[1,1′:3′,1″-terphenyl]-4-yl)acetamide] here?
Its IC50 is greater than 100 nM.

`COc1ccc(-c2cccc(-c3ccc(NC(C)=O)c(F)c3)c2O)cc1` [Example 61, N-(3-Fluoro-2′-hydroxy-4″-methoxy-[1,1′:3′,1″-terphenyl]-4-yl)acetamide] was tested. Which IC50 did it give?
Its IC50 is greater than 100 nM.

`O=C1CCOc2cc(-c3cccc(-c4cc(N5CCNCC5)no4)c3O)ccc2N1` [Example 62, 8-(2-Hydroxy-3-(3-(piperazin-1-yl)isoxazol-5-yl)phenyl)-2,3-dihydrobenzo[b][1,4]oxazepin-4(5H)-one] was tested. Which IC50 did it give?
Its IC50 is greater than 100 nM.

How did the IC50 turn out when `CC(=O)Nc1ccc(-c2cccc(-c3cccnc3)c2O)cc1F` [Example 63, N-(3-Fluoro-2′-hydroxy-3′-(pyridin-3-yl)-[1,1′-biphenyl]-4-yl)acetamide] was run?
The IC50 was 10 to 100 nM.

How did the IC50 turn out when `CC(=O)Nc1ccc(-c2cccc(-c3cc(N4CCNCC4)no3)c2O)cc1C#N` [Example 64, N-(3-Cyano-2′-hydroxy-3′-(3-(piperazin-1-yl)isoxazol-5-yl)-[1,1′-biphenyl]-4-yl)acetamide 2,2,2-trifluoroacetate] was run?
The IC50 was 10 to 100 nM.

`CN1CCN(c2ccc(-c3cccc(-c4cc(N5CCNCC5)no4)c3O)cc2)C1=O` [Example 65, 1-(2′-Hydroxy-3′-(3-(piperazin-1-yl)isoxazol-5-yl)-[1,1′-biphenyl]-4-yl)-3-methylimidazolidin-2-one 2,2,2-trifluoroacetate] was tested. Which IC50 did it give?
Its IC50 is 10 to 100 nM.

With `CC(=O)Nc1ccc(-c2cccc(-c3ccncc3)c2O)cc1F` [Example 67, N-(3-Fluoro-2′-hydroxy-3′-(pyridin-4-yl)-[1,1′-biphenyl]-4-yl)acetamide] as the molecule, how does the IC50 read?
Its IC50 is greater than 100 nM.

With `CC(=O)Nc1ccc(-c2cccc(-c3cc(N4CCNCC4)no3)c2O)cc1Oc1ccccc1` [Example 68, N-(2′-Hydroxy-3-phenoxy-3′-(3-(piperazin-1-yl)isoxazol-5-yl)-[1,1′-biphenyl]-4-yl)acetamide 2,2,2-trifluoroacetate] as the molecule, how does the IC50 read?
The IC50 was 10 to 100 nM.

Which IC50 does the source give for `CCOC(=O)c1ccc(-c2cccc(-c3ccc(NC(C)=O)c(F)c3)c2O)cc1` [Example 69, Ethyl 4″-acetamido-3″-fluoro-2′-hydroxy-[1,1′:3′,1″-terphenyl]-4-carboxylate] here?
The IC50 was greater than 100 nM.

Which IC50 does the source give for `CCOC(=O)c1cccc(-c2cccc(-c3ccc(NC(C)=O)c(F)c3)c2O)c1` [Example 70, Ethyl 4″-acetamido-3″-fluoro-2′-hydroxy-[1,1′:3′,1″-terphenyl]-3-carboxylate] here?
Its IC50 is greater than 100 nM.

For `CCOc1ccc(-c2cccc(-c3ccc(NC(C)=O)c(F)c3)c2O)cc1` [Example 71, N-(4″-ethoxy-3-fluoro-2′-hydroxy-[1,1′:3′,1″-terphenyl]-4-yl)acetamide], which IC50 is on record?
The IC50 was greater than 100 nM.

With `CCOc1cccc(-c2cccc(-c3ccc(NC(C)=O)c(F)c3)c2O)c1` [Example 72, N-(3″-Ethoxy-3-fluoro-2′-hydroxy-[1,1′:3′,1″-terphenyl]-4-yl)acetamide] as the molecule, how does the IC50 read?
The IC50 was greater than 100 nM.

Same assay, conditions: BRD4 BDII IC50, AlphaScreen assay, Table C2

How did the IC50 turn out when `O=C(CF)Nc1ccc(-c2cccc(-c3cc(N4CCNCC4)no3)c2O)cc1` [Example 66, 2-Fluoro-N-(2′-hydroxy-3′-(3-(piperazin-1-yl)isoxazol-5-yl)-[1,1′-biphenyl]-4-yl)acetamide 2,2,2-trifluoroacetate] was run?
Its IC50 is greater than 100 nM.

Source: patent US20250179059A1 (The Regents of the University of California, priority 2021, published 2025)
